Experimental data from patent publication US4216214A, “4-Tert. butyl-3'-chlorodiphenylamine derivatives, their preparation and their application as anti-histaminic drugs” (PRODESIN (Productos Esteve Internacional S.A.), priority 1977, dated 1980).
Several values for one entry are separate records, joined by “and”; a condition that tells them apart may be missing. Equal values may be shown once.

How the values were obtained:
[1] = test system: "H2" histamine receptor sites; experiment: Gastric anti-secretory action, secretion stimulated by histamine (Ghosh and Schild method); assay type: in vivo, Sprague-Dawley rats; settings: intravenous dose inhibiting by 50% the gastric secretion caused by histamine 2.5 μmoles/kg i.v., rats
Method: (§1) Sprague-Dawley rats having a body weight of from 300 to 350 g are used for studying the antagonistic action of the "H2 " histamine receptor sites by the method described by Ghosh and Schild (1958). The gastric secretion is stimulated by intravenous injection of constant doses of histamine (2.5 μmoles/kg) or of carbachol (5 nmoles /kg). The gastric anti-secretory action is then determined by the intravenous dose (in μmole/kg) of derivative which inhibits by 50% the effect caused by the histamine or carbachol (DI-50).

[2] = test system: gastric secretion stimulated by carbachol; experiment: Gastric anti-secretory action, secretion stimulated by carbachol (Ghosh and Schild method); assay type: in vivo, Sprague-Dawley rats; settings: Rattus norvegicus; intravenous dose inhibiting by 50% the gastric secretion caused by carbachol 5 nmoles/kg i.v., rats; read-out: DI-50 with carbachol
Method: as §1

[3] = test system: Ileum of Guinea Pig (agonist Histamine); experiment: Test on isolated organ: contraction by histamine; assay type: cell-based; settings: Cavia porcellus, agonist Histamine 0.05 μ, read-out: Cl-50 of products, Histamine
Method: (§2) During this test, the products are added to the bath in an aqueous solution. The interaction of the various products is determined with different […]: Histamine, acetyl choline, serotonine and norepinephrine. The […] are employed in constant doses to produce contractions in the various biological reactants described below in table III.
(§3) The micromolar concentration which inhibits 50% of the response produced by the constant concentration of each agonist (Cl-50) is determined for each derivative.

[4] = test system: Ileum of Guinea Pig (agonist Acetyl Choline); experiment: Test on isolated organ: contraction by acetyl choline; assay type: cell-based; settings: Cavia porcellus, agonist Acetyl Choline 0.05 μ, read-out: Cl-50 of products, Acetyl Choline
Method: as §2, §3

[5] = test system: Uterus of Rat (agonist Seratonine); experiment: Test on isolated organ: contraction by serotonine; assay type: cell-based; settings: agonist Seratonine 0.10 μ, read-out: Cl-50 of products, Seratonine
Method: as §2, §3

[6] = test system: Deferent of Rat (agonist Norepinephrine); experiment: Test on isolated organ: contraction by norepinephrine; assay type: cell-based; settings: agonist Norepinephrine 1.0 μ, read-out: Cl-50 of products, Norepinephrine
Method: as §2, §3

Acute toxicity in mice = settings: mouse, in vivo
Method: The lethal dose 50 (LD-50) of various derivatives administered orally and intra-peritoneally to mice weighing between 20 and 25 g was determined.

Acute toxicity in rats = settings: rat, in vivo; Sprague-Dawley rats 150 to 180 g, oral; read-out: LD-50 by the oral route in rats
Method: The acute toxicity was determined by oral means in Sprague-Dawley rats having a body weight of 150 to 180 g. The LD-50 of N-(2-piperidinoethyl)-tertiary-butyl-3'-chlorodiphenylamine hydrochloride by the oral route in rats is above 3500 mg/kg.

[7] = Sub-acute toxicity by oral means with rats; settings: rat, in vivo
Method: Three batches of Sprague-Dawley rats each consisting of six males and six females were used. N-(2-piperidinoethyl)-4-tertiary-butyl-3'-chlorodiphenylamine hydrochloride was administered orally to the first two batches in doses of 200 mg/kg and 50 mg/kg respectively. The third batch received a zero dose (distilled water) and was thus used as a control.

[8] = ip, mice 20-25 g, intra-peritoneal, read-out: LD-50 i.p.
[9] = mice 20-25 g, oral, read-out: LD-50 Orally

SMILES | DI-50 with histamine [1] [µmol/kg] | ED50 [2] [µmol/kg] | IC50 [3] [µM] | IC50 [4] [µM] | IC50 [5] [µM] | IC50 [6] [µM] | LD50 (Acute toxicity in mice; [8]) | LD50 (Acute toxicity in mice; [9]) | LD50 (Acute toxicity in mice; ip, read-out: LD-50 i.p.) | LD50 (Acute toxicity in mice; po, read-out: LD-50 Orally) | LD50 (Acute toxicity in rats) [mg/kg] | mortality ([7]; 50 mg/kg) [%] | mortality ([7]; 200 mg/kg) [%]
CC(C)(C)c1ccc(N(CCN2CCCC2)c2cccc(Cl)c2)cc1 [Example 4, N(2-pyrrolidinoethyl)-4-tert.butyl 3'-chlorodiphenylamine] | 2.2 | 20 | 19.8 | 25.4 | 0.05 | 25.4 | 155 mg/kg and 390 µmol/kg | 3000 mg/kg and 7620 µmol/kg |  |  |  |  | 
CCN(CC)CCN(c1ccc(C(C)(C)C)cc1)c1cccc(Cl)c1 [Example 3, N(2-diethylaminoethyl)-4-tert.butyl 3'-chlorodiphenylamine] | 6.0 | > 20 | 27.9 | 25.3 | 2.6 | 25 | 395 mg/kg and 1000 µmol/kg | > 6000 mg/kg and > 15000 µmol/kg |  |  |  |  | 
CC(C)(C)c1ccc(N(CCN2CCCCC2)c2cccc(Cl)c2)cc1 [Example 1, N-(2-piperidino-ethyl)-4-tertiary butyl-3'-chlorodiphenylamine] | 1.0 | > 20 | 2.25 | 25.5 | 0.38 | 24.5 |  |  | 1000 mg/kg and 2450 µmol/kg | > 3500 mg/kg and > 8500 µmol/kg | > 3500 | 8.33 | 33
